In the NIST ThermoML archive (doi:10.1016/j.jct.2016.10.024):

Assay: mn = molality of the nth substance listed, in mol/kg
Details: 75 kPa, Liquid, Buoyancy - hydrostatic balance with magnetic suspension - one sinker

CCCC(N)=O [butanamide] + O
Details	mass density [kg/m3]
275.66 K, m1 = 0.1003	1000.06
275.66 K, m1 = 0.1971	1000.2
275.66 K, m1 = 0.301	1000.37
275.66 K, m1 = 0.4013	1000.56
275.66 K, m1 = 0.4955	1000.75
275.66 K, m1 = 0.6013	1000.97
275.66 K, m1 = 0.695	1001.2
275.66 K, m1 = 0.8012	1001.46
276.14 K, m1 = 0.1021	1000.06
276.14 K, m1 = 0.1961	1000.2
276.14 K, m1 = 0.2967	1000.37
276.14 K, m1 = 0.4955	1000.75
276.14 K, m1 = 0.6013	1000.96
276.14 K, m1 = 0.6982	1001.18
276.14 K, m1 = 0.8012	1001.42
276.14 K, m1 = 0.9855	1001.87
276.61 K, m1 = 0.1009	1000.05
276.61 K, m1 = 0.1973	1000.18
276.61 K, m1 = 0.2967	1000.33
276.61 K, m1 = 0.4013	1000.51
276.61 K, m1 = 0.5977	1000.89
276.61 K, m1 = 0.7003	1001.11
276.61 K, m1 = 0.8012	1001.35
276.61 K, m1 = 0.9976	1001.83
277.15 K, m1 = 0.1021	1000.09
277.15 K, m1 = 0.1961	1000.21
277.15 K, m1 = 0.2967	1000.35
277.15 K, m1 = 0.4955	1000.69
277.15 K, m1 = 0.6013	1000.9
277.15 K, m1 = 0.6982	1001.13
277.15 K, m1 = 0.8012	1001.4
277.15 K, m1 = 0.9855	1001.94
277.61 K, m1 = 0.1009	1000.08
277.61 K, m1 = 0.1973	1000.21
277.61 K, m1 = 0.2967	1000.36
277.61 K, m1 = 0.4013	1000.53
277.61 K, m1 = 0.5977	1000.89
277.61 K, m1 = 0.7003	1001.1
277.61 K, m1 = 0.8024	1001.32
277.61 K, m1 = 0.9976	1001.77
278.12 K, m1 = 0.1076	1000.07
278.12 K, m1 = 0.1971	1000.19
278.12 K, m1 = 0.3283	1000.38
278.12 K, m1 = 0.4191	1000.51
278.12 K, m1 = 0.5074	1000.65
278.12 K, m1 = 0.6233	1000.85
278.12 K, m1 = 0.7379	1001.04
278.12 K, m1 = 0.8761	1001.28
278.68 K, m1 = 0.1003	1000.05
278.68 K, m1 = 0.1971	1000.17
278.68 K, m1 = 0.301	1000.31
278.68 K, m1 = 0.4013	1000.46
278.68 K, m1 = 0.4955	1000.62
278.68 K, m1 = 0.6013	1000.81
278.68 K, m1 = 0.695	1001
278.68 K, m1 = 0.8012	1001.23

CC(N)=O [ethanamide] + O
Details	mass density [kg/m3]
275.66 K, m1 = 0.102	1000.47
275.66 K, m1 = 0.2015	1000.96
275.66 K, m1 = 0.2995	1001.42
275.66 K, m1 = 0.4032	1001.9
275.66 K, m1 = 0.4848	1002.29
275.66 K, m1 = 0.5945	1002.81
275.66 K, m1 = 0.6875	1003.24
275.66 K, m1 = 0.7747	1003.64
276.14 K, m1 = 0.09682	1000.43
276.14 K, m1 = 0.2023	1000.93
276.14 K, m1 = 0.3049	1001.42
276.14 K, m1 = 0.4077	1001.91
276.14 K, m1 = 0.5003	1002.35
276.14 K, m1 = 0.6016	1002.82
276.14 K, m1 = 0.7037	1003.3
276.14 K, m1 = 0.8092	1003.79
276.61 K, m1 = 0.1016	1000.37
276.61 K, m1 = 0.1972	1000.9
276.61 K, m1 = 0.299	1001.39
276.61 K, m1 = 0.4078	1001.9
276.61 K, m1 = 0.4957	1002.32
276.61 K, m1 = 0.6048	1002.83
276.61 K, m1 = 0.6858	1003.21
276.61 K, m1 = 0.8092	1003.78
277.15 K, m1 = 0.09682	1000.43
277.15 K, m1 = 0.2023	1000.93
277.15 K, m1 = 0.3049	1001.41
277.15 K, m1 = 0.4077	1001.88
277.15 K, m1 = 0.5003	1002.32
277.15 K, m1 = 0.6016	1002.8
277.15 K, m1 = 0.7037	1003.28
277.15 K, m1 = 0.8092	1003.77
277.61 K, m1 = 0.1016	1000.45
277.61 K, m1 = 0.1972	1000.91
277.61 K, m1 = 0.299	1001.38
277.61 K, m1 = 0.4078	1001.89
277.61 K, m1 = 0.4957	1002.29
277.61 K, m1 = 0.6048	1002.79
277.61 K, m1 = 0.6858	1003.16
277.61 K, m1 = 0.8092	1003.73
278.12 K, m1 = 0.1016	1000.43
278.12 K, m1 = 0.1972	1000.88
278.12 K, m1 = 0.299	1001.35
278.12 K, m1 = 0.4078	1001.85
278.12 K, m1 = 0.4957	1002.27
278.12 K, m1 = 0.6048	1002.77
278.12 K, m1 = 0.6858	1003.15
278.12 K, m1 = 0.8092	1003.73
278.68 K, m1 = 0.102	1000.43
278.68 K, m1 = 0.2015	1000.9
278.68 K, m1 = 0.2995	1001.36
278.68 K, m1 = 0.4032	1001.83
278.68 K, m1 = 0.4848	1002.21
278.68 K, m1 = 0.5945	1002.7
278.68 K, m1 = 0.6875	1003.12
278.68 K, m1 = 0.7747	1003.51

CCC(N)=O [propanamide] + O
Details	mass density [kg/m3]
275.66 K, m1 = 0.09705	1000.26
275.66 K, m1 = 0.18	1000.53
275.66 K, m1 = 0.2822	1000.89
275.66 K, m1 = 0.3869	1001.24
275.66 K, m1 = 0.4939	1001.62
275.66 K, m1 = 0.5946	1002
275.66 K, m1 = 0.702	1002.4
275.66 K, m1 = 0.8002	1002.77
276.14 K, m1 = 0.1006	1000.29
276.14 K, m1 = 0.1957	1000.6
276.14 K, m1 = 0.2937	1000.93
276.14 K, m1 = 0.3933	1001.26
276.14 K, m1 = 0.4953	1001.62
276.14 K, m1 = 0.59	1001.96
276.14 K, m1 = 0.7073	1002.39
276.14 K, m1 = 0.799	1002.72
276.61 K, m1 = 0.09735	1000.27
276.61 K, m1 = 0.2018	1000.61
276.61 K, m1 = 0.3001	1000.94
276.61 K, m1 = 0.3875	1001.23
276.61 K, m1 = 0.4999	1001.62
276.61 K, m1 = 0.5929	1001.94
276.61 K, m1 = 0.702	1002.32
276.61 K, m1 = 0.7924	1002.63
277.15 K, m1 = 0.1006	1000.29
277.15 K, m1 = 0.1957	1000.61
277.15 K, m1 = 0.2937	1000.93
277.15 K, m1 = 0.3933	1001.27
277.15 K, m1 = 0.4953	1001.61
277.15 K, m1 = 0.59	1001.93
277.15 K, m1 = 0.7073	1002.35
277.15 K, m1 = 0.799	1002.67
277.61 K, m1 = 0.09735	1000.28
277.61 K, m1 = 0.2018	1000.61
277.61 K, m1 = 0.3001	1000.92
277.61 K, m1 = 0.3875	1001.21
277.61 K, m1 = 0.4999	1001.59
277.61 K, m1 = 0.5929	1001.9
277.61 K, m1 = 0.694	1002.23
277.61 K, m1 = 0.8027	1002.59
278.12 K, m1 = 0.09735	1000.28
278.12 K, m1 = 0.2018	1000.62
278.12 K, m1 = 0.297	1000.92
278.12 K, m1 = 0.4495	1001.43
278.12 K, m1 = 0.4911	1001.58
278.12 K, m1 = 0.5697	1001.85
278.12 K, m1 = 0.7087	1002.34
278.12 K, m1 = 0.8713	1002.91
278.68 K, m1 = 0.09705	1000.26
278.68 K, m1 = 0.18	1000.51
278.68 K, m1 = 0.2822	1000.84
278.68 K, m1 = 0.3869	1001.18
278.68 K, m1 = 0.4939	1001.53
278.68 K, m1 = 0.5946	1001.87
278.68 K, m1 = 0.702	1002.24
278.68 K, m1 = 0.8002	1002.58
